In the test the target is T1, human placental aromatase (Homo sapiens, UniProt P11511).
T1 sequence (P11511 1-503): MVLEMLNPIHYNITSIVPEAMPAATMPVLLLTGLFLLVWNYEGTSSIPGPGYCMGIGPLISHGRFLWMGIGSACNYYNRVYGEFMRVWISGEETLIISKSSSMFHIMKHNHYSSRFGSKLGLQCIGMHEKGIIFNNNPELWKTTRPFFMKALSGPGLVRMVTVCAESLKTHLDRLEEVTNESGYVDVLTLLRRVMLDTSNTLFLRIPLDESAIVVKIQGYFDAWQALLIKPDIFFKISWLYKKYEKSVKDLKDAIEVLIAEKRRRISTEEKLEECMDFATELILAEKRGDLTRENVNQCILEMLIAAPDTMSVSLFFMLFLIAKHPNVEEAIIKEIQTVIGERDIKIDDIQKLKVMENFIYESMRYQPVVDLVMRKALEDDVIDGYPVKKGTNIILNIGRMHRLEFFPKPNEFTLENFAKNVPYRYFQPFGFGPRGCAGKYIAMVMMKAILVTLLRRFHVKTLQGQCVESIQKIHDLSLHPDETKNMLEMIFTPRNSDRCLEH
The test can be described thus: Inhibition of purified human placental aromatase. It is filed as biochemical. To be noted: for fold less potent than the AIs (IC50): compared with the AIs; for IC50 (in words): purified placental aromatase.

On to `CO[C@@H]1C[C@@H]2[C@H](CC[C@]3(C)C(=O)CC[C@@H]23)[C@@]2(C)C=CC(=O)C=C12` [Compound 2, (6R,8R,9S,10R,13S,14S)-6-Methoxy-10,13-dimethyl-7,8,9,10,11,12,13,14,15,16-decahydro-3H-cyclopenta[a]-phenanthrene-3,17(6H)-dione], for which the “fold less potent than the AIs (IC50)” value is “about 1000 fold” and the “IC50 (in words)” value is listed as “several micromolar”.
For `CCO[C@@H]1C[C@@H]2[C@H](CC[C@]3(C)C(=O)CC[C@@H]23)[C@@]2(C)C=CC(=O)C=C12` [Compound 3, (6R,8R,9S,10R,13S,14S)-6-Ethoxy-10,13-dimethyl-7,8,9,10,11,12,13,14,15,16-decahydro-3H-cyclopenta[a]-phenanthrene-3,17(6H)-dione], in that order: “about 1000 fold” and “several micromolar”.
With `CC#CCO[C@@H]1C[C@@H]2[C@H](CC[C@]3(C)C(=O)CC[C@@H]23)[C@@]2(C)C=CC(=O)C=C12` [Compound 4, (6R,8R,9S,10R,13S,14S)-6-(But-2-ynyloxy)-10,13-dimethyl-7,8,9,10,11,12,13,14,15,16-decahydro-3H-cyclopenta[a]-phenanthrene-3,17(6H)-dione], under “read-out: inhibition of the enzyme activity”, the inhibition at 300 µM was 93%.

The values are drawn from PMC3469775 (Journal of medicinal chemistry, 2012).
